# What was measured:
# [1] = Stability testing of statins dissolved in PUFA free acid solvent system; type: physicochemical; conditions: 25° C., 60% RH; for Statin in Oil: PUFA free acid solvent system; for Statin in Oil, Percent: share of total statin
# Protocol: The compositions were then mixed until full dissolution was observed, using a magnetic stir bar and sonication for 30-60 second intervals, taking care to maintain a nitrogen headspace over the solution throughout processing. […] Vials were covered with foil to protect from light and stored at 25° C., 60% RH. One vial of each of the three compositions was retrieved at each timepoint for testing. Procedures as listed in the USP Monograph for Omega-3-Acid Ethyl Ester Capsules were followed for measuring quantities of acid value, peroxide value, and absorbance for fats and fixed oils.
# [2] = Comparison of solubility of statins in PUFA free acid solvent system and Lovaza ethyl ester solvent system, HPLC assay of supernatant
# Protocol: For this study, ten vials were prepared such that 5 vials contained 2 mL of Lovaza oil and 5 vials contained 2 mL of PUFA free acid solvent system. About 20 mg of each statin were added to one Lovaza oil vial and to one PUFA free acid solvent system vial. Vials containing the samples were blanketed with nitrogen, then sealed. The vials were then sonicated for 1 hour or until contents appeared clear. After sonication, vials which remained clear received additional 20 mg aliquots of their respective statin and were again blanketed with nitrogen. […] The samples were centrifuged and the supernatant was assayed for the respective statin by HPLC.
# [3] = Solubility of statins in various pH buffers
# [4] = Initial solubility of statins in PUFA free acid solvent system (batch #37225); type: physicochemical
smiles,measurement,setting,value
"CC(C)c1c(C(=O)Nc2ccccc2)c(-c2ccccc2)c(-c2ccc(F)cc2)n1CC[C@@H](O)C[C@@H](O)CC(=O)[O-].CC(C)c1c(C(=O)Nc2ccccc2)c(-c2ccccc2)c(-c2ccc(F)cc2)n1CC[C@@H](O)C[C@@H](O)CC(=O)[O-].[Ca+2] [Atorvastatin Calcium, atorvastatin calcium]",Statin in Oil,[1]; t = 0,8.738 mg/g
same,"Statin in Oil, Percent",[1]; t = 0,100%
same,Statin in Oil,[1]; t = 1 week,8.275 mg/g
same,"Statin in Oil, Percent",[1]; t = 1 week,100%
same,Statin in Oil,[1]; t = 2 week,7.839 mg/g
same,"Statin in Oil, Percent",[1]; t = 2 week,100%
"O=C([O-])C[C@H](O)C[C@H](O)/C=C/c1c(C2CC2)nc2ccccc2c1-c1ccc(F)cc1.O=C([O-])C[C@H](O)C[C@H](O)/C=C/c1c(C2CC2)nc2ccccc2c1-c1ccc(F)cc1.[Ca+2] [Pitavastatin Calcium, pitavastatin calcium]",Solubility in Lovaza (ethyl ester) Solvent System,[2],0.615 mg/g
same,Solubility in PUFA Free Acid Solvent System,[2],12.771 mg/g
"CC[C@H](C)C(=O)O[C@H]1C[C@H](O)C=C2C=C[C@H](C)[C@H](CC[C@@H](O)C[C@@H](O)CC(=O)O)[C@H]21 [Pravastatin Sodium, pravastatin sodium]",Solubility in Lovaza (ethyl ester) Solvent System,[2],0.000 mg/g
same,Solubility in PUFA Free Acid Solvent System,[2],42.357 mg/g
same,Appearance of vial after sonication,"[2]; PUFA free acid solvent, 2 mL, after the addition of about 313 mg",still remained clear
"CC(C)c1nc(N(C)S(C)(=O)=O)nc(-c2ccc(F)cc2)c1/C=C/[C@@H](O)C[C@@H](O)CC(=O)[O-].CC(C)c1nc(N(C)S(C)(=O)=O)nc(-c2ccc(F)cc2)c1/C=C/[C@@H](O)C[C@@H](O)CC(=O)[O-].[Ca+2] [Rosuvastatin Calcium, rosuvastatin calcium]",Solubility,"[3]; 0.1N HCl (pH 1.2), T = 0",0.223
same,Solubility,"[3]; 0.1N HCl (pH 1.2), T = 1 Week",0.104
same,Solubility,"[3]; 0.1N NaOH, T = 0",8.058
same,Solubility,"[3]; 0.1N NaOH, T = 1 Week",0.018
same,Solubility,"[3]; Water, T = 0 (after sitting overnight)",7.08
same,Solubility,"[3]; Water, T = 1 Week",8.822
same,pH of maximal solubility,[3]; aqueous pH buffers,~7.0
same,Aqueous solubility (in words),"[3]; overall across aqueous solutions, rosuvastatin at time zero",significant aqueous solubility
same,Solubility,"[3]; pH 2.2 acid phthalate buffer, T = 0",0.773
same,Solubility,"[3]; pH 2.2 acid phthalate buffer, T = 1 Week",9.343
same,Solubility,"[3]; pH 4.0 acid phthalate buffer, T = 0",1.901
same,Solubility,"[3]; pH 4.0 acid phthalate buffer, T = 1 Week",0.002
same,Solubility,"[3]; pH 5.0 neutralized phthalate buffer, T = 0",4.188
same,Solubility,"[3]; pH 5.0 neutralized phthalate buffer, T = 1 Week",4.790
same,Solubility,"[3]; pH 7.0 phosphate buffer, T = 0",7.963
same,Solubility,"[3]; pH 7.0 phosphate buffer, T = 1 Week",10.654
same,Solubility,"[3]; pH 9.0 alkaline borate buffer, T = 0",4.571
same,Solubility,"[3]; pH 9.0 alkaline borate buffer, T = 1 Week",4.712
same,Solubility in Lovaza (ethyl ester) Solvent System,[2],0.001 mg/g
same,Solubility in PUFA Free Acid Solvent System,[2],12.700 mg/g
same,Statin in Oil,[1]; t = 0,6.481 mg/g
same,"Statin in Oil, Percent",[1]; t = 0,100%
same,Statin in Oil,[1]; t = 1 week,6.416 mg/g
same,"Statin in Oil, Percent",[1]; t = 1 week,100%
same,Statin in Oil,[1]; t = 2 week,6.505 mg/g
same,"Statin in Oil, Percent",[1]; t = 2 week,100%
same,"Initial solubility in PUFA free acid solvent system, Concentration",[4],12.70 mg/mL

# Source: US20130295173A1, “COMPOSITIONS OF STATINS AND OMEGA-3 FATTY ACIDS” (OMTHERA PHARMACEUTICALS, INC., priority 2012, published 2013)
